Biological target: T1, PIK3C2B (PI3K-C2 beta) (Homo sapiens, UniProt O00750)
T1 construct: purchased Thermo Fisher Scientific (Life Technologies) SelectScreen
Test: SelectScreen Adapta
Assay type: biochemical
Settings: ATP 10 µM
Summary of the method: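 Percent values come from Thermo SelectScreen profiling of NU5455, combining activity and binding assays. CSF1R was run in Z'LYTE format at Km app ATP, and CAMK1 in Adapta format with ATP listed at 10.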

T1 sequence (O00750 whole entry): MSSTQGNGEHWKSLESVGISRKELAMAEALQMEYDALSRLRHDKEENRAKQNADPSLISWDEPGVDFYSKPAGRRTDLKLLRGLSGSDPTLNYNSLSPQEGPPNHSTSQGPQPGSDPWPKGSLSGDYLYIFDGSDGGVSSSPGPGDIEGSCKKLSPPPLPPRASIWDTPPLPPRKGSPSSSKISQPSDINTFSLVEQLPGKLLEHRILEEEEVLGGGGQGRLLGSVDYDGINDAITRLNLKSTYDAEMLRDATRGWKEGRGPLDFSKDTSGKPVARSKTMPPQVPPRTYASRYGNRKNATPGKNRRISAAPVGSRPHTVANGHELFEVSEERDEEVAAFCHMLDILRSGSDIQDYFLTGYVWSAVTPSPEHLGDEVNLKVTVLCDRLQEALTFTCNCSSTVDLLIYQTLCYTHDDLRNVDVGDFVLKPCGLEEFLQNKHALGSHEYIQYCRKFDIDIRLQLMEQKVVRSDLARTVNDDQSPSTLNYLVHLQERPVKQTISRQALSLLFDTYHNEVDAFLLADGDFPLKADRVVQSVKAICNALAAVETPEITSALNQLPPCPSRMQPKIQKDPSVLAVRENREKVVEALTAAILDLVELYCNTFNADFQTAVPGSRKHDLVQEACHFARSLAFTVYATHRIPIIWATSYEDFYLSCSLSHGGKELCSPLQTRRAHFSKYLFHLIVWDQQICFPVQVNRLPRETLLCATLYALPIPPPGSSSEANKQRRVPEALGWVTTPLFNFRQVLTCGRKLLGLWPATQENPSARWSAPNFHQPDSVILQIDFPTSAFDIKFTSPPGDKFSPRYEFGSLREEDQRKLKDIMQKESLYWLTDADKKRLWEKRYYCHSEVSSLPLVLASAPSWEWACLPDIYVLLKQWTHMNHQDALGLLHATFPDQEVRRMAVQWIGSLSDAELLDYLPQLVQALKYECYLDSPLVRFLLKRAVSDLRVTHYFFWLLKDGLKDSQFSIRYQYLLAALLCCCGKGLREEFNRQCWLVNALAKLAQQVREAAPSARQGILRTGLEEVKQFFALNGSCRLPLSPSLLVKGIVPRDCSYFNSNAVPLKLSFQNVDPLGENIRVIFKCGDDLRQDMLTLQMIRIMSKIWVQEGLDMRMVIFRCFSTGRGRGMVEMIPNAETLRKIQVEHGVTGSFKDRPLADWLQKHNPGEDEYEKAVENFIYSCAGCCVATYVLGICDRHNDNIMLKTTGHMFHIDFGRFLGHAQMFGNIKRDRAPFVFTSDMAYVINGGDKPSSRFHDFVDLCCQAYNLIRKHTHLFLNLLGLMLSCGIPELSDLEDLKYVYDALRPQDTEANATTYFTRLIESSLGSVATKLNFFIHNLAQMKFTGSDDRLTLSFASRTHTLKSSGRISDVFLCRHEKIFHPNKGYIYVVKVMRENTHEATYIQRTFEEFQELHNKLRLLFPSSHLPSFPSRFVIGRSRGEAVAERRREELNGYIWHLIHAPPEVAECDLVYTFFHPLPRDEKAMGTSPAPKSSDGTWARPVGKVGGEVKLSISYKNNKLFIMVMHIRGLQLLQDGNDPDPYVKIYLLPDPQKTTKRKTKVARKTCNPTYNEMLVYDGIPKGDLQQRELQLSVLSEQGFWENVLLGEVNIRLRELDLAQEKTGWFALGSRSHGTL

Question: For `CN(C(=O)CN1CCOCC1)c1ccc2sc3c(-c4cccc5c(=O)cc(N6CC7CCC(C6)O7)oc45)cccc3c2c1` [NU5455], which inhibition at 1 µM is on record?
Answer: Its inhibition at 1 µM is 28.9%.
